This passage reports Ki, Papp and half-life results from patent US7893067B2, “Cysteine protease inhibitors” (Medivir AB, priority 2007, dated 2011).

The target of data set [1] is T1, human recombinant cathepsin K (Homo sapiens, UniProt P43235).
T1 construct: made in house; host or cells: not fixed: E coli, Pichia or Baculovirus systems named as options
T1 sequence (P43235 115-329): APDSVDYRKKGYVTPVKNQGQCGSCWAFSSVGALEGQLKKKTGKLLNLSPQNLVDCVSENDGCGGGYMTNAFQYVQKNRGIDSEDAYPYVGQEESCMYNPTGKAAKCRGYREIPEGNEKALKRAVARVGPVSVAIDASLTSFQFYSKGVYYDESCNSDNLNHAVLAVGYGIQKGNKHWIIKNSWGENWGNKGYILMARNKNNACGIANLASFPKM
As to the kind of experiment: Determination of cathepsin K proteolytic catalytic activity (Ki). Format: biochemical. The procedure: Convenient assays for cathepsin K are carried out using human recombinant enzyme, such as that described in PDB.
The recombinant cathepsin K can be expressed in a variety of commercially available expression systems including E coli, Pichia and Baculovirus systems. The purified enzyme is activated by removal of the prosequence by conventional methods.
Standard assay conditions for the determination of kinetic constants used a fluorogenic peptide substrate, typically H-D-Ala-Leu-Lys-AMC, and were determined in either 100 mM Mes/Tris, pH 7.0 containing 1 mM EDTA and 10 mM 2-mercaptoethanol or 100 mM Na phosphate, imM EDTA, 0.1% PEG4000 pH 6.5 or 100 mM Na acetate, pH 5.5 containing 5 mM EDTA and 20 mM cysteine, in each case optionally with […] as stabiliser. The enzyme concentration used was 5 nM. The stock substrate solution was prepared at 10 mM in DMSO. Screens were carried out at a fixed substrate concentration of 60 μM and detailed kinetic studies with doubling dilutions of substrate from 250 μM. The total DMSO concentration in the assay was kept below 3%. All assays were conducted at ambient temperature. Product fluorescence (excitation at 390 nm, emission at 460 nm) was monitored with a Labsystems Fluoroskan Ascent fluorescent plate reader. Product progress curves were generated over 15 minutes following generation of AMC product.
(§1) Potential inhibitors are screened using the above assay with variable concentrations of test compound. Reactions were initiated by addition of enzyme to buffered solutions of substrate and inhibitor. Ki values were calculated according to equation 1
(§2) [formula] where v0 is the velocity of the reaction, V is the maximal velocity, S is the concentration of substrate with Michaelis constant of KM, and/is the concentration of inhibitor.

The target of data set [2] is human cathepsin L (Homo sapiens, UniProt P07711). As to the kind of experiment: Cathepsin L Ki. The class given is biochemical. The procedure:
The procedure above with the following amendments is used for the determination of Ki for cathepsin L.
The enzyme is commercially available human cathepsin L (for example Calbiochem). The substrate is H-D-Val-Leu-Lys-AMC available from Bahcem. The assay buffer is 100 mM sodium acetate 1 mM EDTA, pH5.5) The DMSO stock (10 mM in 100% DMSO) is diluted to 10% in assay buffer. Enzyme is prepared at 5 nM concentration in assay buffer plus 1 mM dithiothreitol just before use. 2 ul of 10 mM inhibitor made up in 100% DMSO is dispensed into row A. 10 ul of 50 uM substrate (=1/200 dilution of 10 mM stock in DMSO, diluted in assay buffer)
as §1, §2

For data set [3], the target named is T2, baculovirus-expressed human cathepsin S (Homo sapiens, UniProt P25774).
T2 construct: made in house
T2 sequence (P25774 115-331): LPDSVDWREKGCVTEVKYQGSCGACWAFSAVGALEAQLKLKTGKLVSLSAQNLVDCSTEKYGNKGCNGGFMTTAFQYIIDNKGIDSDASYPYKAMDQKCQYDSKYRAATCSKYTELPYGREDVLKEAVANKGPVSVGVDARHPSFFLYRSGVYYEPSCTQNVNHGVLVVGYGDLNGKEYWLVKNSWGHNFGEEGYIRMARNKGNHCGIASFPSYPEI
Put plainly: Cathepsin S Ki determination. Format: biochemical. The procedure: 280 μl/well of 12.5% DMSO are added to rows B-H of two columns of a 96 deep well polypropylene plate. 70 μl/well of substrate is added to row A. 2×250 μl/well of assay buffer (100 mM Na phosphate, 100 mM NaCl, pH 6.5) is added to row A, mixed, and double diluted down the plate to row H. 100 μl/well of assay buffer is added to columns 2-5 and 7-12 of 4 rows of a 96 well V bottom polypropylene plate. 200 μl/well of assay buffer is added to columns 1 and 6. […] Add 90 μl assay buffer containing 1 mM DTT and 2 nM cathepsin S to each well of rows B-H and 180 μl to row A. Mix row A using a multichannel pipette and double dilute to row G. Mix row H and read in the fluorescent spectrophotometer. […] The second test compound is added to column 6 of the top row, the third to column 1 of the second row etc. Add 1 μl of comparator to column 6 of the bottom row. Mix column 1 and double dilute to column 5. Mix column 6 and double dilute to column 10. Using an 8-channel multistepping pipette set to 5×10 μl, distribute 10 μl/well of substrate to the 384 well assay plate. Distribute the first column of the substrate dilution plate to all columns of the assay plate starting at row A. The tip spacing of the multichannel pipette will correctly skip alternate rows. Distribute the second column to all columns starting at row B. Using a 12-channel multistepping pipette set to 4×10 μl, distribute 10 μl/well of inhibitor to the 384 well assay plate. Distribute the first row of the inhibitor dilution plate to alternate rows of the assay plate starting at A1. The tip spacing of the multichannel pipette will correctly skip alternate columns. Similarly, distribute the second, third and fourth rows to alternate rows and columns starting at A2, B1 and B2 respectively. Mix 20 ml assay buffer and 20 μl 1M DTT. Add sufficient cathepsin S to give 2 nM final concentration. Using the a distributor such as a Multidrop 384, add 30 μl/well to all wells of the assay plate and read in fluorescent spectrophotomoter such as an Ascent. Fluorescent readings, (excitation and emission wavelengths 390 nm and 460 nm respectively, set using bandpass filters) reflecting the extent of enzyme cleavage of the fluorescent substrate, notwithstanding the inhibitor, are linear rate fitted for each well. Fitted rates for all wells for each inhibitor are fitted to the competitive inhibition equation using SigmaPlot 2000 to determine V, Km and Ki values. Potential inhibitors are screened using the above assay with variable concentrations of test compound. Reactions were initiated by addition of enzyme to buffered solutions of substrate and inhibitor. Ki values were calculated according to equation 1 [formula] where v0 is the velocity of the reaction, V is the maximal velocity, S is the concentration of substrate with Michaelis constant of KM, and/is the concentration of inhibitor.

Data set [4] in a line: Caco-2 permeability (Papp). Format: in vitro ADME. Particulars: human; Caco-2 assay, standard concentration 10 μM. The method, then:
The transport plate comprises 3 rows of 4 wells.
Determination of the cumulative fraction absorbed, FAcum, versus time. FAcum is calculated from: […]
A linear relationship should be obtained.

A short description of data set [5]: Metabolic stability in human hepatic cytosol assay. The class given is in vitro ADME. Particulars: 2 μM in pooled human liver cytosol, 1 mg/mL protein, pH 7.4, 37°, 1 mM NADPH. The method, then: Compounds of the invention and the indicated comparative examples were tested for metabolic stability in a cytosol assay in which the compounds were incubated with commercially available human hepatic cytosol fractions and the disappearance of the compound monitored by HPLC or LC/MS. Pooled human liver cytosol fractions are less likely to represent outlier individuals than blood from a single individual and can be stored frozen, unlike whole blood. The cytosol assay thus provides a consistent assay testbed as a guide to the stability of a compound in the in vivo environment, such as when exposed to whole blood.
In short, test compounds (2 μM) are incubated in pooled human liver cytosol (Xenotech LLC Lenexa US, 1 mg/mL protein in 0.1M phosphate buffer, pH 7.4) at 37° centigrade over a one hour period. The incubations are initiated by the addition of 1 mM NADPH co-factor. Timed sub-samples were taken at 0, 20, 40 and 60 minutes and “crash precipitated” by the addition of 3 volumes of ice-cold acetonitrile. The samples were centrifuged at reduced temperature and the supernatants were separated and analyzed by LC-MS-MS.

[6] abbreviates: representative values from specific batches of compound/enzyme/assay occasion.

human cathepsin L, sequence (P07711 114-333): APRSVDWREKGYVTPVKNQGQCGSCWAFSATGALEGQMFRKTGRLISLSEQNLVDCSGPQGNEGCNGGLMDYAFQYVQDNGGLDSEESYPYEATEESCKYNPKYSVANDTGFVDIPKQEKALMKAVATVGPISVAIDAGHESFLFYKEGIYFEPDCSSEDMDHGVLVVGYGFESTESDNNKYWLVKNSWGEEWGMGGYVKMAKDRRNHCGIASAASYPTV

Turning to `CC(C)C[C@H](NC(=O)c1ccc(-c2csc(N3CCN(C)CC3)n2)c(F)c1)C(=O)N1C[C@@H](Cl)[C@H]2OCC(=O)[C@H]21` [Example 10, N—[(S)-1-((3aS,6R,6aS)-6-Chloro-3-oxo-hexahydro-furo[3,2-b]pyrrole-4-carbonyl)-3-methyl-butyl]-3-fluoro-4-[2-(4-methyl-piperazin-1-yl)-thiazol-4-yl]-benzamide], the Ki (commonly a measure of affinity in units of concentration, obtained from inhibition or displacement) in data set [1] (Table 1, class symbols) was less than 0.05 µM; in data set [1] (setting [6]) it was 0.0034 µM; in data set [2] (Table 1, class symbols), 0.05 to 0.5 µM; in data set [2] (setting [6]) it was 0.49 µM; in data set [3] (Table 1, class symbols), 1 to 5 µM; in data set [3] (setting [6]) it was 4.7 µM. In data set [4], the Papp (usually a coefficient for how fast a substance crosses the barrier) at 120 min, 10 μM was determined as 5.2 ×10⁻⁶ cm/s.
On to `CC(C)C[C@H](NC(=O)c1ccc(-c2nc(N3CCN(C)CC3)sc2F)cc1)C(=O)N1C[C@@H](Cl)[C@H]2OCC(=O)[C@H]21` [Example 12, N-[1-(6-Chloro-3-oxo-hexahydro-furo[3,2-b]pyrrole-4-carbonyl)-3-methyl-butyl]-4-[5-fluoro-2-(4-methyl-piperazin-1-yl)-thiazol-4-yl]-benzamide], for which the Ki is less than 0.05 µM in data set [1] (Table 1, class symbols); 0.0018 µM in data set [1] (setting [6]); 1 to 5 µM in data set [2] (Table 1, class symbols); 1.6 µM in data set [2] (setting [6]); greater than 10 µM in data set [3] (Table 1, class symbols); 11 µM in data set [3] (setting [6]). The half-life (in general, how long it takes for the measured level to halve) at 2 μM in data set [5] turned out to be 4.5 h. For the same molecule, the Papp at 120 min, 10 μM in data set [4] was 10 ×10⁻⁶ cm/s.
